Experimental data: patent US4959368A, “Therapeutic agent for neurological diseases” (Mitsui Petrochemical Industries Ltd., priority 1986, dated 1990)

How the values were obtained:
[1] = system: human neuroblastoma cell line GOTO; assay: Activity on neuroblastoma cell line GOTO (cell number, number and length of neurites); type: cell-based; conditions: for Number of cells (mean ± S.E.): control 12.30 ± 1.48
Outline: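 GOTO cells were cultured 1–2 days at 37 °C, 5% CO2, then switched to serum-free RPMI/MEM (1:1) with compounds in PBS at various concentrations for 24 h. Living cells were counted by erythrosine exclusion (3–6 dishes); neurite number and length per cell were measured from photographs.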

[2] = system: mouse neuroblastoma cell line neuro-2a; assay: Activity on cell line neuro-2a (simple method); type: cell-based
Outline: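 Cells (2–6×10^4 per dish) grown 1–2 days at 37 °C, then switched to serum-free RPMI/MEM with compound in PBS for 24 h. Live cells counted by erythrosine exclusion; score is fraction of cells bearing neurites at least as long as the cell's long diameter, from photos.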

[3] = system: mouse neuroblastoma cell line neuro-2a; assay: Activity on neuro-2a, cells with outgrown neurites; type: cell-based
Outline: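 Mouse neuro-2a cells in DMEM with FCS exposed to compounds for 24 h (up to 6 concentrations, triplicate runs), glutaraldehyde-fixed and methylene blue-stained. Proportion of cells bearing a neurite at least twice the cell's long diameter counted microscopically over ≥200 cells.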

mice = assay: Acute toxicity, mouse; type: in vivo; conditions: 24 hours; for Number of dead animals/number of test animals: Table 7, 1000 mg/kg p.o.; for Presumed LD50: Table 7, p.o.
Experimental: The acute toxicity of the compounds of the invention was examined by the following method.
Male ddy-strain 5-week old mice and male Wistar-strain 8 week old rats, five per group, were used as experimental animals. Each of the compounds was dissolved in saline and administered perorally, and the toxicity of the compound was assessed 24 hours after the administration.

[4] = Table 1 Run No. 2, 1 μg/ml, control 2.06 ± 0.60
[5] = Table 1 Run No. 2, 1 μg/ml, control 55.00 ± 37.26
[6] = Table 1 Run No. 2, 10 μg/ml, control 2.06 ± 0.60
[7] = Table 1 Run No. 2, 10 μg/ml, control 55.00 ± 37.26
[8] = Table 2 neuro-2a Run No. 2, 1 μg/ml, control 7.9
[9] = Table 2 neuro-2a Run No. 2, 10 μg/ml, control 7.9

## CN1Cc2nc(N3CCNCC3)ncc2C1=O [Compound 604]
[1]; Table 1, Run No. 6 by footnote, 1 μg/ml, control 42.48 ± 19.64, all *P <0.01
  Length of neurites (mean ± S.D.): 58.88 ± 22.72 μm/cell
[1]; Table 1, second control group (Run No. 6 by footnote), 1 μg/ml, control 1.79 ± 0.80
  Number of neurites/cell (mean ± S.D.): 2.23 ± 0.81 neurites/cell
[1]; [4]
  Number of neurites/cell (mean ± S.D.): 2.29 ± 0.77 neurites/cell
[1]; Table 1 Run No. 2, 1 μg/ml
  Number of cells (mean ± S.E.): 14.41 ± 2.98 × 10^4 /dish
[1]; [5]
  Length of neurites (mean ± S.D.): 76.30 ± 51.49 μm/cell
[1]; [6]
  Number of neurites/cell (mean ± S.D.): 2.27 ± 0.62 neurites/cell
[1]; Table 1 Run No. 2, 10 μg/ml
  Number of cells (mean ± S.E.): 11.85 ± 1.36 × 10^4 /dish
[1]; [7]
  Length of neurites (mean ± S.D.): 72.06 ± 42.79 μm/cell
[2]; [8]
  Average of the proportions: 19.86%
[2]; [9]
  Average of the proportions: 17.20%
[2]; Table 2 neuro-2a Run No. 3, 0.01 μg/ml, control 2.0
  Average of the proportions: 10.7%
[2]; Table 2 neuro-2a Run No. 3, 0.1 μg/ml, control 2.0
  Average of the proportions: 16.50%
[2]; Table 2 neuro-2a Run No. 3, 1 μg/ml, control 2.0
  Average of the proportions: 11.25%
[3]; Table 3 Run No. 3, 0.3 mM, control 3.9 ± 0.3
  Cells having neurites with a length at least twice the long diameter of cell/total number of cells: 8.6 ± 0.9%
[3]; Table 3 Run No. 3, 1 mM, control 3.9 ± 0.3
  Cells having neurites with a length at least twice the long diameter of cell/total number of cells: 10.7 ± 1.3%
mice
  Number of dead animals/number of test animals: 0/5
mice; 1440 min
  Presumed LD50: > 1000 mg/kg p.o.

## CN1C(=O)Cc2cnc(N3CCNCC3)nc21 [Compound 408]
[1]; [4]
  Number of neurites/cell (mean ± S.D.): 2.11 ± 0.65 neurites/cell
[1]; Table 1 Run No. 2, 1 μg/ml
  Number of cells (mean ± S.E.): 17.52 ± 2.57 × 10^4 /dish
[1]; [5]
  Length of neurites (mean ± S.D.): 66.09 ± 36.49 μm/cell
[1]; [6]
  Number of neurites/cell (mean ± S.D.): 2.17 ± 0.66 neurites/cell
[1]; Table 1 Run No. 2, 10 μg/ml
  Number of cells (mean ± S.E.): 13.07 ± 0.80 × 10^4 /dish
[1]; [7]
  Length of neurites (mean ± S.D.): 69.33 ± 40.68 μm/cell
[2]; [8]
  Average of the proportions: 27.73%
[2]; [9]
  Average of the proportions: 25.05%
[3]; Table 3 Run No. 3, 0.01 mM, control 3.9 ± 0.3
  Cells having neurites with a length at least twice the long diameter of cell/total number of cells: 7.9 ± 1.8%
[3]; Table 3 Run No. 3, 0.03 mM, control 3.9 ± 0.3
  Cells having neurites with a length at least twice the long diameter of cell/total number of cells: 13.0 ± 1.2%
[3]; Table 3 Run No. 3, 0.05 mM, control 3.9 ± 0.3
  Cells having neurites with a length at least twice the long diameter of cell/total number of cells: 23.0 ± 1.7%
[3]; Table 3 Run No. 3, 0.1 mM, control 3.9 ± 0.3
  Cells having neurites with a length at least twice the long diameter of cell/total number of cells: 51.2 ± 1.5%
[3]; Table 3 Run No. 4, 0.05 mM, control 3.1 ± 0.2
  Cells having neurites with a length at least twice the long diameter of cell/total number of cells: 16.8 ± 2.7%
[3]; Table 3 Run No. 4, 0.1 mM, control 3.1 ± 0.2
  Cells having neurites with a length at least twice the long diameter of cell/total number of cells: 33.5 ± 2.7%
[3]; Table 3 Run No. 4, 0.2 mM, control 3.1 ± 0.2
  Cells having neurites with a length at least twice the long diameter of cell/total number of cells: 44.6 ± 3.1%
[3]; Table 3 Run No. 7, 0.01 mM, control 2.5 ± 0.7
  Cells having neurites with a length at least twice the long diameter of cell/total number of cells: 6.2 ± 0.9%
[3]; Table 3 Run No. 7, 0.1 mM, control 2.5 ± 0.7
  Cells having neurites with a length at least twice the long diameter of cell/total number of cells: 25.0 ± 2.7%
[3]; Table 3 Run No. 7, 0.2 mM, control 2.5 ± 0.7
  Cells having neurites with a length at least twice the long diameter of cell/total number of cells: 44.5 ± 2.9%
[3]; Table 3 first Run No. 5, 0.05 mM, no control given
  Cells having neurites with a length at least twice the long diameter of cell/total number of cells: 12.8 ± 1.8%
[3]; Table 3 first Run No. 5, 0.1 mM, no control given
  Cells having neurites with a length at least twice the long diameter of cell/total number of cells: 23.5 ± 2.5%
mice; 1000 mg/kg
  Number of dead animals/number of test animals: 0/5
mice
  Presumed LD50: > 1000 mg/kg p.o.
